Laboratory results taken from PubChem BioAssay AID248 (DTP/NCI, 2004).
Several values for one entry are separate records, joined by “and”; a condition that tells them apart may be missing. Equal values may be shown once. Toxic doses and inconclusive results are not listed.

System: L1210 leukemia ip in BDF1 mice, survival T/C
Experiment: NCI In Vivo Anticancer Drug Screen. Data for tumor model L1210 Leukemia (intraperitoneal) in B6D2F1 (BDF1) mice
Conditions: higher = longer survival
Procedure, shortened: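 Transplanted-tumor mice were given test agent; controls received vehicle only. Survival readings from the two groups were divided (treated over control).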

CS(=O)(=O)OCCCNCCCOS(C)(=O)=O
T/C (endpoint: mean survival time, dose: 3.0 mg/kg/injection, schedule: Q03HX024 (ip), vehicle: saline): 122 % of control
T/C (endpoint: mean survival time, dose: 5.0 mg/kg/injection, schedule: Q03HX008 (ip), vehicle: saline): 119 % of control
T/C (endpoint: mean survival time, dose: 5.0 mg/kg/injection, schedule: Q03HX024 (ip), vehicle: saline): 152 % of control
T/C (endpoint: mean survival time, dose: 8.4 mg/kg/injection, schedule: Q01DX009 (ip), vehicle: saline): 160 % of control and 173 % of control
T/C (endpoint: mean survival time, dose: 8.4 mg/kg/injection, schedule: Q03HX008 (ip), vehicle: saline): 150 % of control
T/C (endpoint: mean survival time, dose: 8.4 mg/kg/injection, schedule: Q03HX016 (ip), vehicle: saline): 156 % of control
T/C (endpoint: mean survival time, dose: 8.4 mg/kg/injection, schedule: Q03HX024 (ip), vehicle: saline): 155 % of control and 245 % of control
T/C (endpoint: mean survival time, dose: 14.0 mg/kg/injection, schedule: Q01DX009 (oral), vehicle: saline): 100 % of control
T/C (endpoint: mean survival time, dose: 14.0 mg/kg/injection, schedule: Q01DX015 (ip), vehicle: saline): 155 % of control
T/C (endpoint: mean survival time, dose: 14.0 mg/kg/injection, schedule: Q03HX008 (ip), vehicle: saline): 166 % of control and 239 % of control
T/C (endpoint: mean survival time, dose: 14.0 mg/kg/injection, schedule: Q03HX016 (ip), vehicle: saline): 188 % of control and 303 % of control
T/C (endpoint: mean survival time, dose: 14.0 mg/kg/injection, schedule: Q03HX024 (ip), vehicle: saline): 332 % of control and 344 % of control
T/C (endpoint: mean survival time, dose: 20.0 mg/kg/injection, schedule: Q01DX009 (ip), vehicle: saline): 164 % of control and 179 % of control
T/C (endpoint: mean survival time, dose: 21.0 mg/kg/injection, schedule: Q01DX015 (ip), vehicle: saline): 155 % of control
T/C (endpoint: mean survival time, dose: 23.0 mg/kg/injection, schedule: Q01DX009 (oral), vehicle: saline): 115 % of control
T/C (endpoint: mean survival time, dose: 23.0 mg/kg/injection, schedule: Q03HX008 (ip), vehicle: saline): 184 % of control and 327 % of control
T/C (endpoint: mean survival time, dose: 23.0 mg/kg/injection, schedule: Q03HX016 (ip), vehicle: saline): 244 % of control and 440 % of control
T/C (endpoint: mean survival time, dose: 23.0 mg/kg/injection, schedule: Q04DX003 (iv), vehicle: saline): 98 % of control
T/C (endpoint: mean survival time, dose: 25.0 mg/kg/injection, schedule: Q01DX001 (ip), vehicle: saline): 115 % of control
T/C (endpoint: mean survival time, dose: 36.0 mg/kg/injection, schedule: Q01DX015 (ip), vehicle: saline): 242 % of control
T/C (endpoint: mean survival time, dose: 39.0 mg/kg/injection, schedule: Q01DX003 (ip), vehicle: saline): 164 % of control and 170 % of control
T/C (endpoint: mean survival time, dose: 39.0 mg/kg/injection, schedule: Q01DX005 (ip), vehicle: saline): 190 % of control
T/C (endpoint: mean survival time, dose: 39.0 mg/kg/injection, schedule: Q01DX009 (sc), vehicle: saline): 120 % of control
T/C (endpoint: mean survival time, dose: 39.0 mg/kg/injection, schedule: Q04DX003 (ip), vehicle: clinical formulation): 157 % of control
T/C (endpoint: mean survival time, dose: 39.0 mg/kg/injection, schedule: Q04DX003 (ip), vehicle: saline): 212 % of control
T/C (endpoint: mean survival time, dose: 39.0 mg/kg/injection, schedule: Q04DX003 (iv), vehicle: saline): 87 % of control
T/C (endpoint: mean survival time, dose: 39.0 mg/kg/injection, schedule: Q08DX002 (ip), vehicle: saline): 200 % of control
T/C (endpoint: mean survival time, dose: 40.0 mg/kg/injection, schedule: Q01DX009 (ip), vehicle: saline): 178 % of control and 188 % of control
T/C (endpoint: mean survival time, dose: 60.0 mg/kg/injection, schedule: Q01DX015 (ip), vehicle: saline): 159 % of control
T/C (endpoint: mean survival time, dose: 65.0 mg/kg/injection, schedule: Q01DX001 (ip), vehicle: saline): 160 % of control
T/C (endpoint: mean survival time, dose: 65.0 mg/kg/injection, schedule: Q01DX001 (oral), vehicle: saline): 109 % of control
T/C (endpoint: mean survival time, dose: 65.0 mg/kg/injection, schedule: Q01DX003 (ip), vehicle: saline): 241 % of control
T/C (endpoint: mean survival time, dose: 65.0 mg/kg/injection, schedule: Q01DX005 (ip), vehicle: saline): 402 % of control
T/C (endpoint: mean survival time, dose: 65.0 mg/kg/injection, schedule: Q01DX009 (oral), vehicle: saline): 106 % of control
T/C (endpoint: mean survival time, dose: 65.0 mg/kg/injection, schedule: Q04DX003 (ip), vehicle: clinical formulation): 159 % of control
T/C (endpoint: mean survival time, dose: 65.0 mg/kg/injection, schedule: Q04DX003 (ip), vehicle: saline): 299 % of control and 445 % of control
T/C (endpoint: mean survival time, dose: 65.0 mg/kg/injection, schedule: Q04DX003 (ip), vehicle: water): 173 % of control
T/C (endpoint: mean survival time, dose: 65.0 mg/kg/injection, schedule: Q04DX003 (iv), vehicle: saline): 109 % of control
T/C (endpoint: mean survival time, dose: 65.0 mg/kg/injection, schedule: Q04DX003 (oral), vehicle: saline): 120 % of control
T/C (endpoint: mean survival time, dose: 65.0 mg/kg/injection, schedule: Q08DX002 (ip), vehicle: saline): 226 % of control
T/C (endpoint: mean survival time, dose: 80.0 mg/kg/injection, schedule: Q01DX009 (ip), vehicle: saline): 94 % of control and 122 % of control
T/C (endpoint: mean survival time, dose: 100.0 mg/kg/injection, schedule: Q01DX001 (ip), vehicle: saline): 150 % of control
T/C (endpoint: mean survival time, dose: 108.0 mg/kg/injection, schedule: Q01DX001 (ip), vehicle: saline): 193 % of control and 337 % of control
T/C (endpoint: mean survival time, dose: 108.0 mg/kg/injection, schedule: Q01DX001 (oral), vehicle: saline): 110 % of control
T/C (endpoint: mean survival time, dose: 108.0 mg/kg/injection, schedule: Q01DX001 (sc), vehicle: saline): 115 % of control
T/C (endpoint: mean survival time, dose: 108.0 mg/kg/injection, schedule: Q01DX003 (ip), vehicle: saline): 247 % of control and 310 % of control
T/C (endpoint: mean survival time, dose: 108.0 mg/kg/injection, schedule: Q01DX005 (ip), vehicle: saline): 280 % of control
T/C (endpoint: mean survival time, dose: 108.0 mg/kg/injection, schedule: Q01DX009 (sc), vehicle: saline): 93 % of control
T/C (endpoint: mean survival time, dose: 108.0 mg/kg/injection, schedule: Q04DX003 (ip), vehicle: clinical formulation): 108 % of control
T/C (endpoint: mean survival time, dose: 108.0 mg/kg/injection, schedule: Q04DX003 (ip), vehicle: saline): 267 % of control and 422 % of control
T/C (endpoint: mean survival time, dose: 108.0 mg/kg/injection, schedule: Q04DX003 (ip), vehicle: water): 100 % of control
T/C (endpoint: mean survival time, dose: 108.0 mg/kg/injection, schedule: Q04DX003 (iv), vehicle: saline): 113 % of control
T/C (endpoint: mean survival time, dose: 180.0 mg/kg/injection, schedule: Q01DX001 (ip), vehicle: saline): 246 % of control
T/C (endpoint: mean survival time, dose: 180.0 mg/kg/injection, schedule: Q01DX001 (oral), vehicle: saline): 120 % of control
T/C (endpoint: mean survival time, dose: 180.0 mg/kg/injection, schedule: Q01DX001 (sc), vehicle: saline): 115 % of control
T/C (endpoint: mean survival time, dose: 180.0 mg/kg/injection, schedule: Q01DX003 (ip), vehicle: saline): 95 % of control and 103 % of control
T/C (endpoint: mean survival time, dose: 180.0 mg/kg/injection, schedule: Q04DX003 (iv), vehicle: saline): 118 % of control
T/C (endpoint: mean survival time, dose: 180.0 mg/kg/injection, schedule: Q04DX003 (oral), vehicle: saline): 95 % of control
T/C (endpoint: mean survival time, dose: 180.0 mg/kg/injection, schedule: Q08DX002 (ip), vehicle: saline): 421 % of control
T/C (endpoint: mean survival time, dose: 200.0 mg/kg/injection, schedule: Q01DX001 (ip), vehicle: saline): 157 % of control and 176 % of control and 200 % of control
T/C (endpoint: median survival time, dose: 12.5 mg/kg/injection, schedule: Q01DX009 (ip), vehicle: saline): 115 % of control
T/C (endpoint: median survival time, dose: 23.0 mg/kg/injection, schedule: Q01DX005 (ip), vehicle: saline): 122 % of control
T/C (endpoint: median survival time, dose: 25.0 mg/kg/injection, schedule: Q01DX009 (ip), vehicle: saline): 150 % of control
T/C (endpoint: median survival time, dose: 39.0 mg/kg/injection, schedule: Q01DX005 (ip), vehicle: saline): 155 % of control
T/C (endpoint: median survival time, dose: 39.0 mg/kg/injection, schedule: Q01DX005 (sc), vehicle: saline): 122 % of control
T/C (endpoint: median survival time, dose: 39.0 mg/kg/injection, schedule: Q01DX009 (ip), vehicle: saline): 150 % of control
T/C (endpoint: median survival time, dose: 50.0 mg/kg/injection, schedule: Q01DX009 (ip), vehicle: saline): 180 % of control
T/C (endpoint: median survival time, dose: 50.0 mg/kg/injection, schedule: Q04DX003 (ip), vehicle: saline): 161 % of control
T/C (endpoint: median survival time, dose: 65.0 mg/kg/injection, schedule: Q01DX005 (ip), vehicle: saline): 155 % of control
T/C (endpoint: median survival time, dose: 65.0 mg/kg/injection, schedule: Q01DX009 (ip), vehicle: saline): 100 % of control and 115 % of control
T/C (endpoint: median survival time, dose: 65.0 mg/kg/injection, schedule: Q04DX003 (ip), vehicle: saline): 155 % of control
T/C (endpoint: median survival time, dose: 100.0 mg/kg/injection, schedule: Q04DX003 (ip), vehicle: saline): 177 % of control and 666 % of control
T/C (endpoint: median survival time, dose: 108.0 mg/kg/injection, schedule: Q01DX001 (ip), vehicle: saline): 155 % of control
T/C (endpoint: median survival time, dose: 108.0 mg/kg/injection, schedule: Q01DX005 (ip), vehicle: saline): 100 % of control
T/C (endpoint: median survival time, dose: 108.0 mg/kg/injection, schedule: Q01DX005 (sc), vehicle: saline): 88 % of control
T/C (endpoint: median survival time, dose: 108.0 mg/kg/injection, schedule: Q04DX003 (ip), vehicle: saline): 188 % of control
T/C (endpoint: median survival time, dose: 200.0 mg/kg/injection, schedule: Q04DX003 (ip), vehicle: saline): 100 % of control
